The text below walks through data of ChEMBL document CHEMBL4765394, “From irreversible to reversible covalent inhibitors: Harnessing the andrographolide scaffold for anti-inflammatory action” (Eur J Med Chem, 2020).

Calls of active or inactive are those of the source. The rule behind the calls is not given here. Where only a bound is given, the exact number is not on record here.

Tested on in one series: not listed separately
Nature of the series: GSH reactivity in PBS assessed as GSH adduct formation by measuring half life by HPLC-MS analysis. The class given is ADME.
Conditions: not given
With `C=C1CC[C@@H]2[C@](C)(CO)[C@H](O)CC[C@@]2(C)[C@@H]1C/C=C1\C=COC1=O`, the t1/2 came to 3 min.

Tested on in the next series: not listed separately
Nature of the series: GSH reactivity in PBS assessed as GSH adduct formation measured up to 8 hrs by HPLC-MS analysis. Format: ADME. Particulars: buffer.
Consider `C=C1CC[C@@H]2[C@](C)(CO)[C@H](O)CC[C@@]2(C)[C@@H]1C/C=C1\C=COC1=O`, for which the K is 0.003539 M⁻¹ s⁻¹.

Tested on in the next series: not listed separately
Nature of the series: Aqueous stability of compound. Particulars: buffer. The class given is physicochemical.
As for `C=C1CC[C@@H]2[C@](C)(CO)[C@H](O)CC[C@@]2(C)[C@@H]1C/C=C1/CCOC1=O`, the Stabilty result is “Stable”.

On to `C=C1CC[C@@H]2[C@](C)(CO)[C@H](O)CC[C@@]2(C)[C@@H]1C/C=C1\NC(=O)NC1=O`, for which the Stabilty result was “Stable”.

As for `C=C1CC[C@@H]2[C@](C)(CO)[C@H](O)CC[C@@]2(C)[C@@H]1C/C=C1\C[C@H](OC)OC1=O`, the Stabilty result is given as “Stable”.

`C=C1CC[C@@H]2[C@](C)(CO)[C@H](O)CC[C@@]2(C)[C@@H]1CC=O`: the Stabilty result is “Stable”.

For the molecule `C=C1CC[C@@H]2[C@](C)(CO)[C@H](O)CC[C@@]2(C)[C@@H]1C/C=C1\C(=O)OC[C@H]1O`, the Stabilty entry is reported as “Stable”.

Turning to `C=C1CC[C@@H]2[C@](C)(CO)[C@H](O)CC[C@@]2(C)[C@@H]1C/C=C/C#N`, the Stabilty entry was “Stable”.

In the case of `C[C@H]1CC[C@@H]2[C@](C)(CO)[C@H](O)CC[C@@]2(C)[C@@H]1CC[C@@H]1C(=O)OC[C@H]1O`, the Stabilty entry is “Stable”.

On to `C=C1CC[C@@H]2[C@](C)(CO)[C@H](O)CC[C@@]2(C)[C@@H]1C/C=C1\C[C@@H](OC)OC1=O`, for which the Stabilty entry is “Stable”.

With `C=C1CC[C@@H]2[C@](C)(CO)[C@H](O)CC[C@@]2(C)[C@@H]1C/C=C1\C(=O)Nc2ccc(F)cc21`, the Stabilty result was “Stable”.

For the molecule `C=C1CC[C@@H]2[C@](C)(CO)[C@H](O)CC[C@@]2(C)[C@@H]1C/C=C1\C(=O)Nc2ccccc21`, the Stabilty entry is on record as “Stable”.

Regarding `C=C1CC[C@@H]2[C@](C)(CO)[C@H](O)CC[C@@]2(C)[C@@H]1C/C=C\C#N`, the Stabilty entry was “Stable”.

As for `C=C1CC[C@@H]2[C@](C)(CO)[C@H](O)CC[C@@]2(C)[C@@H]1C/C=C1\C=COC1=O`, the Stabilty entry is “Stable”.

Tested on in a further series: not listed separately
Nature of the series: GSH reactivity assessed as GSH adduct formation by measuring reduction in intracellular GSH level at 20 uM measured after 2 hrs by cell-based monochlorobimane fluorometric method. Format: ADME. Also noted: scale not given: the % may be the effect or the level left.
Conditions: not given
With `C=C1CC[C@@H]2[C@](C)(CO)[C@H](O)CC[C@@]2(C)[C@@H]1C/C=C1\C=COC1=O`, the Activity is reported as greater than 70%.

The test system of a further series is RAW264.7. The series can be described thus: Cytotoxicity against mouse RAW264.7 cells assessed as reduction cell viability at 5 to 50 uM measured after 24 hrs by Celltiter-glo assay. The class given is cell-based. Particulars: raw264.7, 24 h, dose 5-50 µM.
For the molecule `C=C1CC[C@@H]2[C@](C)(CO)[C@H](O)CC[C@@]2(C)[C@@H]1C/C=C1\NC(=O)NC1=O`, the Activity entry is listed as “Non-Toxic”.

Another series has as its system RAW264.7. Nature of the series: Antiinflammatory activity in mouse RAW264.7 cells assessed as inhibition of LPS-induced TNFalpha release at 5 to 10 uM preincubated for 1 hr followed by LPS stimulation and measured after 4 hrs by ELISA. Format: functional, cell-based. Particulars: dose 5-10 µM, time 5.0 hrs.
On to `C=C1CC[C@@H]2[C@](C)(CO)[C@H](O)CC[C@@]2(C)[C@@H]1CC=O`, for which the inhibition result was “inactive”.

Turning to `C=C1CC[C@@H]2[C@](C)(CO)[C@H](O)CC[C@@]2(C)[C@@H]1C/C=C1\C(=O)OC[C@H]1O`, the inhibition entry is “inactive”.

For the molecule `C=C1CC[C@@H]2[C@](C)(CO)[C@H](O)CC[C@@]2(C)[C@@H]1C/C=C/C#N`, the inhibition result was “inactive”.

For the molecule `C[C@H]1CC[C@@H]2[C@](C)(CO)[C@H](O)CC[C@@]2(C)[C@@H]1CC[C@@H]1C(=O)OC[C@H]1O`, the inhibition entry was “inactive”.

Regarding `C=C1CC[C@@H]2[C@](C)(CO)[C@H](O)CC[C@@]2(C)[C@@H]1C/C=C1\C=COC1=O`, the inhibition entry was “Active”.

In another series the test system is RAW-Blue. Nature of the series: Inhibition of LPS-induced NF-kappaB activity in mouse RAW-Blue cells assessed as reduction in SEAP reporter activity at 5 to 20 uM preincubated for 1 hr followed by LPS stimulation and measured after 8 hrs by SEAP reporter gene assay. Format: cell-based. Particulars: dose 5-20 µM, time 9.0 hrs.
Regarding `C=C1CC[C@@H]2[C@](C)(CO)[C@H](O)CC[C@@]2(C)[C@@H]1C/C=C1\C=COC1=O`, the inhibition result is “Active”.

In the next series the test system is RAW-Blue. Nature of the series: Activation of NF-kappaB activity in mouse RAW-Blue cells assessed as increase in SEAP reporter activity at 5 to 20 uM measured after 24 hrs by SEAP reporter gene assay. The class given is cell-based. Particulars: filed as activator, dose 5-20 µM.
On to `C=C1CC[C@@H]2[C@](C)(CO)[C@H](O)CC[C@@]2(C)[C@@H]1C/C=C1\C=COC1=O`, for which the result was Active.

The test system of the next series is RAW264.7. The series can be described thus: Antiinflammatory activity in mouse RAW264.7 cells assessed as inhibition of LPS-induced IL6 release at 5 to 10 uM preincubated for 1 hr followed by LPS stimulation and measured after 24 hrs by ELISA. Format: functional, cell-based. Particulars: dose 5-10 µM, time 25.0 hrs.
As to `C=C1CC[C@@H]2[C@](C)(CO)[C@H](O)CC[C@@]2(C)[C@@H]1C/C=C1/CCOC1=O`, the inhibition result is “inactive”.

As to `C=C1CC[C@@H]2[C@](C)(CO)[C@H](O)CC[C@@]2(C)[C@@H]1C/C=C1\NC(=O)NC1=O`, the inhibition entry was “inactive”.

Take `C=C1CC[C@@H]2[C@](C)(CO)[C@H](O)CC[C@@]2(C)[C@@H]1C/C=C1\C[C@H](OC)OC1=O`: the inhibition result is “inactive”.

Turning to `C=C1CC[C@@H]2[C@](C)(CO)[C@H](O)CC[C@@]2(C)[C@@H]1CC=O`, the inhibition entry is “inactive”.

With `C=C1CC[C@@H]2[C@](C)(CO)[C@H](O)CC[C@@]2(C)[C@@H]1C/C=C/C#N`, the inhibition entry was “inactive”.

Regarding `C[C@H]1CC[C@@H]2[C@](C)(CO)[C@H](O)CC[C@@]2(C)[C@@H]1CC[C@@H]1C(=O)OC[C@H]1O`, the inhibition entry was “inactive”.

`C=C1CC[C@@H]2[C@](C)(CO)[C@H](O)CC[C@@]2(C)[C@@H]1C/C=C1\C[C@@H](OC)OC1=O`: the inhibition entry was “inactive”.

As for `C=C1CC[C@@H]2[C@](C)(CO)[C@H](O)CC[C@@]2(C)[C@@H]1C/C=C1\C(=O)Nc2ccc(F)cc21`, the inhibition entry was “inactive”.

Turning to `C=C1CC[C@@H]2[C@](C)(CO)[C@H](O)CC[C@@]2(C)[C@@H]1C/C=C1\C(=O)Nc2ccccc21`, the inhibition result is “inactive”.

On to `C=C1CC[C@@H]2[C@](C)(CO)[C@H](O)CC[C@@]2(C)[C@@H]1C/C=C\C#N`, for which the inhibition result is “inactive”.

Consider `C=C1CC[C@@H]2[C@](C)(CO)[C@H](O)CC[C@@]2(C)[C@@H]1C/C=C1\C=COC1=O`, for which the inhibition entry is “Active”.

For a further series, the system named is RAW-Blue. Nature of the series: Inhibition of LPS-induced NF-kappaB activity in mouse RAW-Blue cells assessed as reduction in SEAP reporter activity at 5 to 20 uM preincubated for 1 hr followed by LPS stimulation and measured after 24 hrs by SEAP reporter gene assay. Format: cell-based. Particulars: dose 5-20 µM, time 25.0 hrs.
Regarding `C=C1CC[C@@H]2[C@](C)(CO)[C@H](O)CC[C@@]2(C)[C@@H]1C/C=C1\C=COC1=O`, the inhibition entry was “inactive”.

Another series concerns RAW-Blue. Nature of the series: Inhibition of LPS-induced NF-kappaB activity in mouse RAW-Blue cells assessed as reduction in SEAP reporter activity at 5 to 20 uM preincubated for 1 hr followed by LPS stimulation and measured after 8 to 24 hrs by SEAP reporter gene assay. Particulars: dose 5-20 µM, time 25.0 hrs. The class given is cell-based.
Turning to `C=C1CC[C@@H]2[C@](C)(CO)[C@H](O)CC[C@@]2(C)[C@@H]1C/C=C1\C(=O)OC[C@H]1O`, the inhibition entry was “inactive”.

For the next series, the system named is RAW-Blue. The series can be described thus: Activation of NF-kappaB activity in mouse RAW-Blue cells assessed as increase in SEAP reporter activity at 30 uM measured after 24 hrs in presence of p38 inhibitor SB203580 by SEAP reporter gene assay. Format: cell-based.
Conditions: not given
As to `C=C1CC[C@@H]2[C@](C)(CO)[C@H](O)CC[C@@]2(C)[C@@H]1C/C=C1\C=COC1=O`, the outcome was inactive.
